# Assay results: patent US6900891B2, “Optical sensors for the detection of nitric oxide” (The Regents of the University of Michigan, priority 1999, dated 2005)
# Tested on: macrophages derived from BALB/c mice
# Test: Extracellular nitric oxide released by macrophages, measured with fiber sensors
# Format: cell-based
# Conditions: FIG. 19; macrophages treated with LPS and INF-γ and inhibited with 1 mM inhibitor
# Description: Specifically, said sensors were placed in solution, approximately 0.5 cm from the macrophages.
# In one embodiment, the above referenced sensors were used to quantify nitric oxide production by macrophages derived from BALB/c mice. […] Some macrophages were activated by overnight incubation with medium containing 100 U/mL IFN-γ enzyme Corp., Cambridge, Mass.) and 100 ng/mL LPS (List Biological Labs, Inc., Campbell, Calif.). In addition, to activation with IFN-γ and LPS, some cells were also treated with NMMA, (Sigma) to inhibit the production of nitric oxide. Prior to nitric oxide determinations, the macrophages were removed from incubation. For inactivated macrophages, the medium was exchanged for 2 mL Ringer's buffer. […] During measurements, the cells were kept at ambient temperature (25° C.) and 7.5 mg/mL propidium iodide was used to ascertain the degree of cell viability.
# In another embodiment, macrophages were derived from the tibia and femur bone marrow of Harlan Sprague-Dawley BALB/c mice were cultured and plated by methods similar to previously published methods. For extracellular measurements with fiber sensors the cells where plated at a density of 2×10^5 on 25 mm coverslips, while those to be used for scrape-loading were plated onto 35 mm petri dishes (Nunc) at a density of 2×10^6. […]
smiles,measurement,value
"CNC(=N)NCCC[C@H](N)C(=O)O [Nω-monomethyl-L-arginine, N^ω-monomethyl-L-arginine]",[NO],20 µM
